Experimental findings from US12240844B2 (Voronoi, Inc., priority 2019, dated 2025) are described below.

One experiment deals with human DYRK1A and Tau. Briefly: Tau phosphorylation inhibition, ClariCELL Kinase Cell-Based Assay (Carnabio). Put shortly:
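HEK293 cells transiently expressing human DYRK1A and Tau were exposed to compound, then lysed. Released Tau was captured on plate and its phosphorylation quantified by ELISA with a phospho-Tau-specific antibody.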

In experiment [1] the target is T1, LRRK2, LRRK2 (G2019S), DYRK1, CLK1 and TTK kinases (Homo sapiens, UniProt Q13627).
T1 construct: other: DYRK1; Kinase HotSpot service (Reaction Biology), ATP 10 uM
Briefly: Enzyme IC50 by Kinase HotSpot service (Reaction Biology Corporation), values marked with *. It is filed as biochemical. The conditions noted are these: DYRK1, ATP 10 uM. On the procedure: (§1) Meanwhile, the enzyme IC50 measurement for some compounds was performed using Kinase HotSpot service (Reaction Biology Corporation); during the test, the ATP concentration was 10 uM, where all were conducted under the same condition; and the concentration of the compound was measured by giving a 3-fold concentration gradient with the highest concentration of […], where the values measured using Kinase HotSpot service (Reaction Biology Corporation) were marked with “*”.
(§2) All experimental methods were performed as provided in Kinase HotSpot Customer Protocol (http://www.reactionbiology.com//Kinase_Assay_Protocol).
(§3) In the table below, the following designations were used for the evaluation of enzyme inhibitory ability.

In experiment [2] the target is T2, LRRK2, LRRK2 (G2019S), DYRK1, CLK1 and TTK kinases (Homo sapiens, UniProt Q5S007).
T2 construct: LRRK2 IC50 (marked with *); other: LRRK2; Kinase HotSpot service (Reaction Biology), ATP 10 uM
The experiment is described as above. The conditions noted are these: LRRK2, ATP 10 uM. It is filed as biochemical. On the procedure: as §1, §2, §3

Experiment [3] addresses T3, LRRK2, LRRK2 (G2019S), DYRK1, CLK1 and TTK kinases (Homo sapiens, UniProt P49759).
T3 construct: CLK1 IC50 (marked with *); other: CLK1; Kinase HotSpot service (Reaction Biology), ATP 10 uM
The experiment is described as above. It is filed as biochemical. The note with it: CLK1, ATP 10 uM. On the procedure:
as §1, §2, §3

Experiment [4] deals with T4, LRRK2, LRRK2 (G2019S), DYRK1, CLK1 and TTK kinases (Homo sapiens, UniProt Q5S007, G2019S).
T4 construct: other: LRRK2 (G2019S); Kinase HotSpot service (Reaction Biology), ATP 10 uM
Described as above. It is filed as biochemical. The conditions noted are these: LRRK2 (G2019S), ATP 10 uM. On the procedure:
as §1, §2, §3

Another experiment deals with MDA-MB-231 cell line. Briefly: MDA-MB-231 cancer cell proliferation inhibition (Cell Titer-Glo). It is filed as cell-based. The note with it: Homo sapiens, MDA-MB-231 triple-negative breast cancer cell line, 72 hours. Summed up: (§4)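 GI50 comes from CellTiter-Glo luminescence, read 10 min after reagent addition at RT, following 72 h compound treatment. Eleven concentrations were used (⅓ steps, highest 10 μM final) on 2000 cells/well. MDA-MB-231 and MDA-MB-468 were grown in DMEM, SHP-77 in RPMI.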
In general terms: In ATP-based viability assays light output follows the ATP content of the culture.

The target in the next experiment is T5, TTK (Homo sapiens, UniProt P33981).
T5 sequence (P33981 1-857): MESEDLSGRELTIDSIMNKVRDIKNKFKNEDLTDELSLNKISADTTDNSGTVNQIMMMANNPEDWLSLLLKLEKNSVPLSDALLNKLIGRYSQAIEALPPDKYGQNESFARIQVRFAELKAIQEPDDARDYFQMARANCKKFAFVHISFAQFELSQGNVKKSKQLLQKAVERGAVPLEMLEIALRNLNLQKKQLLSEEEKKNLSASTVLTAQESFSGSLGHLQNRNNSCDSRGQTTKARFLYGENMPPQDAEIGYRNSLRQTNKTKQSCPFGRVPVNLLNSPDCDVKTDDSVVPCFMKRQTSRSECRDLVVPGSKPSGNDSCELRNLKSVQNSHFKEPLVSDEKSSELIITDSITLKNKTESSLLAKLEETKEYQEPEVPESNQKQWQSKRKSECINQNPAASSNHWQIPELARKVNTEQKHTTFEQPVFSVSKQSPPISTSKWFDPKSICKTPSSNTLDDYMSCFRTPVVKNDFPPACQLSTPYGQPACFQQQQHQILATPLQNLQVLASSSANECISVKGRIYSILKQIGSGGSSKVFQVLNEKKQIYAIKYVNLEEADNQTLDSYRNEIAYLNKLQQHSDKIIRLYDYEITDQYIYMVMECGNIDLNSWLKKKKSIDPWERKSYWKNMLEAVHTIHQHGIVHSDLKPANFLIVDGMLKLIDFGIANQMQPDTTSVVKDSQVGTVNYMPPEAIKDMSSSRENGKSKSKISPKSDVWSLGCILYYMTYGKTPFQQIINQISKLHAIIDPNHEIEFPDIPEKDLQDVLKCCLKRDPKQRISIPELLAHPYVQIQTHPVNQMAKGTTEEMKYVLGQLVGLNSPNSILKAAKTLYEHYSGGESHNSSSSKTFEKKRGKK
Nature of the experiment: TTK enzyme inhibition, ADP-Glo kinase assay. It is filed as biochemical. Also noted: purchased Signalchem T20-10G. The conditions noted are these: ATP 5 μM. On the procedure: In order to evaluate the inhibitory activity of the compounds according to the present invention on LRRK2, LRRK2 (G2019S), DYRK1, CLK1 and TTK kinases, the following experiment was performed.
Example compounds were reacted with the purified human TTK (Signalchem #T20-10G) enzyme to evaluate the enzyme inhibitory ability as follows. The reaction buffer was used as the composition of 40 mM Tris-HCl pH7.4, 20 mM MgCl2, 0.1 mg/ml BSA (5× kinase buffer, Signalchem #K03-09) and 50 μM DTT (Signalchem #D86-09B), and the reaction of all test materials was performed on the reaction buffer. The compound was diluted with 10 mM DMSO stock in […] by a serial dilution method, and the enzyme activity was measured at the final compound concentrations of 1, 0.333333, 0.111111, 0.037037, 0.012346, 0.004115, 0.001372, 0.000457, 0.000152, 0.000051 and 0.000017 μM. In the test, the human TTK (7.5 ng) enzyme was reacted with the purified ATP (5 μM, Promega #V6930) and an MBP enzyme substrate (0.2 μg, Signalchem M42-51N) at 25° C. for 4 hours, and then the enzyme activity was identified using the in vitro ADP-Glo™ kinase assay (Promega #V6930). The enzyme activity reaction liquid, an ADP-Glo reaction liquid and an enzyme potency detection solution were reacted in a ratio of 2:2:1, and the degree of inhibition of enzyme activity was measured by luminescence. The degree of inhibition of enzyme activity according to the treatment concentrations of the respective compounds was calculated based on the luminescence degree of the enzyme activity of a solvent control group that was not treated with the compound, where the concentration of each compound to inhibit enzyme activity inhibition by 50% was determined as an IC50 (nM) value and obtained using Prism (Version 8.2, GraphPad) software.
as §3
For orientation: ADP-Glo turns the ADP formed in a reaction into a luminescent signal.

The subject of another experiment is SHP-77. Nature of the experiment: SHP-77 cancer cell proliferation inhibition (Cell Titer-Glo). The note with it: Homo sapiens, SHP77, SHP-77 small cell lung cancer cell line, 72 hours. It is filed as cell-based. Summed up:
as §4

The term inhibition denotes the change of the read-out against control, counted positive when it falls. As a reminder, the IC50 is the concentration that gives 50% inhibition. Low values mean greater potency, high ones weaker potency. As a reminder, the GI50 is the concentration that inhibits growth by half. The low end stands for more potent growth inhibition, the high end for less potent growth inhibition.

T2 sequence (Q5S007 whole entry G2019S): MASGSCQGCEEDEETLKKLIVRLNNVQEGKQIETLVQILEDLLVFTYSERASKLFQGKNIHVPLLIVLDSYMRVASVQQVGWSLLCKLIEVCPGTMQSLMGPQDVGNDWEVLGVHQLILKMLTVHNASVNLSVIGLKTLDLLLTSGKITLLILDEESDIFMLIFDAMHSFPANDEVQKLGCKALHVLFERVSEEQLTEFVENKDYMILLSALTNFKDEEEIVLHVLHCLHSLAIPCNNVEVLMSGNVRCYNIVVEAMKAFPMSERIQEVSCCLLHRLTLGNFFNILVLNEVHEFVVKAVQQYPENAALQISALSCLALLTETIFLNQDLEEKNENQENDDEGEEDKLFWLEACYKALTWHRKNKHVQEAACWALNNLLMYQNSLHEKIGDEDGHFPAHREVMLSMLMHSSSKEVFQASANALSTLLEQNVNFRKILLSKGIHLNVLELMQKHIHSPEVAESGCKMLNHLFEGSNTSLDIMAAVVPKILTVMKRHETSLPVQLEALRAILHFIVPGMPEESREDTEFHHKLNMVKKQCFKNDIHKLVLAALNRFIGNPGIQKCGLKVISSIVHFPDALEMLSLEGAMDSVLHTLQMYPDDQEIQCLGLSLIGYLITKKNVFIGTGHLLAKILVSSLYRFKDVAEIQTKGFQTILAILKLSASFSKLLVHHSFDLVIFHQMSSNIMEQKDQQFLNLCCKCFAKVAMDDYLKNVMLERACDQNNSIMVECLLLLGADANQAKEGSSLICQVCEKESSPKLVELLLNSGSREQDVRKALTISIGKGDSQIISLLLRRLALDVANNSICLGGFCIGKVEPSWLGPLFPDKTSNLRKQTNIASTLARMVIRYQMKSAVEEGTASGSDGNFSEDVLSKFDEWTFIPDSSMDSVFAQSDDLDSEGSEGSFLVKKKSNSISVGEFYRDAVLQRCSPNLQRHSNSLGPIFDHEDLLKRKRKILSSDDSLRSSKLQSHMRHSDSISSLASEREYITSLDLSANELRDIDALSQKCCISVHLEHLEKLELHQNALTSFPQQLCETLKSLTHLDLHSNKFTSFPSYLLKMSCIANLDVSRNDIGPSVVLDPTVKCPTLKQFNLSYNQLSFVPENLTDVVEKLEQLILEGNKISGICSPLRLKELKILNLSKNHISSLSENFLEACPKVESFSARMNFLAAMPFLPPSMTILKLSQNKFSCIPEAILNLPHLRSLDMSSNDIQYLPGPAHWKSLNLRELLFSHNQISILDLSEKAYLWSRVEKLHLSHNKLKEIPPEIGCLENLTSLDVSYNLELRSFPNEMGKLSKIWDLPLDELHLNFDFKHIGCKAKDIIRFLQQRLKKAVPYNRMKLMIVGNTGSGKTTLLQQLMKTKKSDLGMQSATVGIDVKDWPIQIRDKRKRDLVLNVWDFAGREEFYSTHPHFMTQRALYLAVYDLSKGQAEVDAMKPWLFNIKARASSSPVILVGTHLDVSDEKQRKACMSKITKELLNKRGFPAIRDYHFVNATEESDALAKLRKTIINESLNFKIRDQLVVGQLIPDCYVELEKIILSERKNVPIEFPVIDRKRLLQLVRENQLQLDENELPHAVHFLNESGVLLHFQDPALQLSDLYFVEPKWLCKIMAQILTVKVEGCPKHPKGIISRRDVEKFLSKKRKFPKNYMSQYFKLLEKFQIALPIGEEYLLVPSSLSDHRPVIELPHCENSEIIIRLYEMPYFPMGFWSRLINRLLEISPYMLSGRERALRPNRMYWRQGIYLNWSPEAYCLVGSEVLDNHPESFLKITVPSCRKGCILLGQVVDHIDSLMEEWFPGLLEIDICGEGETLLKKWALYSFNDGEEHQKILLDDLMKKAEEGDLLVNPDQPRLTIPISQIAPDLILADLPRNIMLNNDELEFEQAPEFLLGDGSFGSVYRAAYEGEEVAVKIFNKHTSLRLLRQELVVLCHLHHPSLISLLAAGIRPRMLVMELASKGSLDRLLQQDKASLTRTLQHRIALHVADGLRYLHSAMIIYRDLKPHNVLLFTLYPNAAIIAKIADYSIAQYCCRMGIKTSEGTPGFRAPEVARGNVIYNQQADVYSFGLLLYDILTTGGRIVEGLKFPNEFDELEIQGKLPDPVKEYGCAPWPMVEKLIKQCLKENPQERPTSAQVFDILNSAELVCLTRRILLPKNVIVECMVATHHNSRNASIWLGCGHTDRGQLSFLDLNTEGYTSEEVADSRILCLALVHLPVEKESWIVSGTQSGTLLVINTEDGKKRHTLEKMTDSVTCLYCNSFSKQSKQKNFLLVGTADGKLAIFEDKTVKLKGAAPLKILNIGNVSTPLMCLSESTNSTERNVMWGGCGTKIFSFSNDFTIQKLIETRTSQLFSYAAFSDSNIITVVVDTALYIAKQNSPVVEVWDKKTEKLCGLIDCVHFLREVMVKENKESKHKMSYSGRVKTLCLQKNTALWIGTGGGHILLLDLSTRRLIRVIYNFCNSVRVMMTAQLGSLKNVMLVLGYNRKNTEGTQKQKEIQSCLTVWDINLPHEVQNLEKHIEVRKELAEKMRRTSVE
T4 sequence (Q5S007 whole entry G2019S): as above
T3 sequence (P49759 whole entry, stated change not applied): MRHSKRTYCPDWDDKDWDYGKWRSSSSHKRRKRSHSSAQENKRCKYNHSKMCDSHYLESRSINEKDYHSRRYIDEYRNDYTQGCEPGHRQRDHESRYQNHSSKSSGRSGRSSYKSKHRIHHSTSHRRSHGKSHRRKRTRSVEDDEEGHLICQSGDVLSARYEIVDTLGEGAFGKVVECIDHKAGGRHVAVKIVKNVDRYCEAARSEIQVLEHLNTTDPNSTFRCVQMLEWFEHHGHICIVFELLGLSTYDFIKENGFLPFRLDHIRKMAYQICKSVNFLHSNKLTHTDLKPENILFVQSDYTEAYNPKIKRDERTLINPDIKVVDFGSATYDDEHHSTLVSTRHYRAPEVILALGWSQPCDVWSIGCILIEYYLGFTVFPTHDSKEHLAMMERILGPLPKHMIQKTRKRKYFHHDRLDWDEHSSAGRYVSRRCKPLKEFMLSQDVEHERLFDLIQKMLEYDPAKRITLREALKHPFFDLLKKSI

Regarding `COc1cc(S(=O)(=O)N2CCC(N3CCOCC3)CC2)ccc1Nc1cc(C2CC2)c2c(C(F)(F)F)c[nH]c2n1` [Example 223, 4-cyclopropyl-N-(2-methoxy-4-((4-morpholinopiperidin-1-yl)sulfonyl)phenyl)-3-(trifluoromethyl)-1H-pyrrolo[2,3-b]pyridin-6-amine], testing at 0.25 µM in the experiment with human DYRK1A and Tau (0.25 uM) gave an inhibition of 4.6%. In the experiment with human DYRK1A and Tau (0.5 uM), this compound registered an inhibition at 0.5 µM of 12.9%. The compound further had an inhibition at 1 µM in the experiment with human DYRK1A and Tau (1 uM) of 29%. For the same compound, the IC50 (in experiment [1]; in experiment [2]; in experiment [3]; in experiment [4]; at TTK) was less than 100 nM throughout. For the same compound, the GI50 in the experiment with MDA-MB-231 cell line and with SHP-77 was 301 to 1000 nM each time.
